Assay results reported in the supplement of paper PMC10307832.

What was measured:
Assay in all cases: relative viability (nuclei count vs DMSO), 5 days (fraction); higher = more cells survive
[1] = test system: NCI-H650
Procedure, shortened: (§1)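 Medians of duplicate plates are given as relative viability. That measure is the nuclei count in treated wells divided by the count in vehicle wells. Counts were taken on 4× images of lung cancer cell lines in 1536-well plates, 5 days after pin-tool dosing the day after seeding with one drug alone or a fixed anchor-drug dose plus five library-drug doses (not always all listed) in √10 steps.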

[2] = test system: EPLC-272H
Procedure, shortened: as §1

[3] = test system: NCI-H2087
Procedure, shortened: as §1

[4] = test system: NCI-H2085
Procedure, shortened: as §1

[5] = test system: LCLC-103H
Procedure, shortened: as §1

[6] = test system: RERF-LC-KJ
Procedure, shortened: as §1

[7] = test system: NCI-H2170
Procedure, shortened: as §1

[8] = test system: PC-14
Procedure, shortened: as §1

[9] = test system: SK-MES-1
Procedure, shortened: as §1

[10] = test system: NCI-H647
Procedure, shortened: as §1

[11] = test system: NCI-H1395
Procedure, shortened: as §1

[12] = test system: NCI-H3122
Procedure, shortened: as §1

[13] = test system: A-427
Procedure, shortened: as §1

[14] = test system: NCI-H1651
Procedure, shortened: as §1

[15] = test system: COR-L 105
Procedure, shortened: as §1

[16] = test system: LXF-289
Procedure, shortened: as §1

[17] = test system: NCI-H1975
Procedure, shortened: as §1

[18] = test system: NCI-H1993
Procedure, shortened: as §1

[19] = test system: NCI-H2023
Procedure, shortened: as §1

[20] = test system: NCI-H596
Procedure, shortened: as §1

[21] = test system: HOP-62
Procedure, shortened: as §1

[22] = test system: COR-L23
Procedure, shortened: as §1

## Cc1cnc(-c2cnc(NCCNc3ccc(C#N)cn3)nc2-c2ccc(Cl)cc2Cl)[nH]1 + Nc1ncn([C@H]2C[C@H](O)[C@@H](CO)O2)c(=O)n1 [Decitabine] (partner 2 µM)
[1]; first compound 0.08 µM
  relative viability: 0.356
[1]; first compound 0.253 µM
  relative viability: 0.339
[1]; first compound 0.8 µM
  relative viability: 0.302
[1]; first compound 2.53 µM
  relative viability: 0.329
[2]; first compound 0.08 µM
  relative viability: 0.436
[2]; first compound 0.253 µM
  relative viability: 0.353
[2]; first compound 0.8 µM
  relative viability: 0.352
[2]; first compound 2.53 µM
  relative viability: 0.467
[3]; first compound 0.08 µM
  relative viability: 0.282
[3]; first compound 0.8 µM
  relative viability: 0.286
[3]; first compound 2.53 µM
  relative viability: 0.204
[4]; first compound 0.08 µM
  relative viability: 0.535
[4]; first compound 0.253 µM
  relative viability: 0.554
[4]; first compound 0.8 µM
  relative viability: 0.542
[4]; first compound 2.53 µM
  relative viability: 0.572
[5]; first compound 0.08 µM
  relative viability: 0.732
[5]; first compound 0.253 µM
  relative viability: 0.722
[5]; first compound 0.8 µM
  relative viability: 0.751
[5]; first compound 2.53 µM
  relative viability: 0.728
[6]; first compound 0.08 µM
  relative viability: 0.713
[6]; first compound 0.253 µM
  relative viability: 0.702
[6]; first compound 0.8 µM
  relative viability: 0.66
[6]; first compound 2.53 µM
  relative viability: 0.599
[7]; first compound 0.08 µM
  relative viability: 0.481
[7]; first compound 0.8 µM
  relative viability: 0.484
[7]; first compound 2.53 µM
  relative viability: 0.406
[8]; first compound 0.08 µM
  relative viability: 0.232
[8]; first compound 0.253 µM
  relative viability: 0.171
[8]; first compound 0.8 µM
  relative viability: 0.217
[8]; first compound 2.53 µM
  relative viability: 0.234
[9]; first compound 0.08 µM
  relative viability: 0.378
[9]; first compound 0.253 µM
  relative viability: 0.35
[9]; first compound 0.8 µM
  relative viability: 0.393
[9]; first compound 2.53 µM
  relative viability: 0.406
[10]; first compound 0.08 µM
  relative viability: 0.381
[10]; first compound 0.253 µM
  relative viability: 0.36
[10]; first compound 0.8 µM
  relative viability: 0.349
[10]; first compound 2.53 µM
  relative viability: 0.297
[11]; first compound 0.08 µM
  relative viability: 0.774
[11]; first compound 0.253 µM
  relative viability: 0.714
[11]; first compound 0.8 µM
  relative viability: 0.737
[11]; first compound 2.53 µM
  relative viability: 0.757
[12]; first compound 0.08 µM
  relative viability: 0.461
[12]; first compound 0.8 µM
  relative viability: 0.461
[12]; first compound 2.53 µM
  relative viability: 0.386
[13]; first compound 0.08 µM
  relative viability: 0.535
[13]; first compound 0.253 µM
  relative viability: 0.526
[13]; first compound 0.8 µM
  relative viability: 0.61
[13]; first compound 2.53 µM
  relative viability: 0.618
[14]; first compound 0.08 µM
  relative viability: 0.626
[14]; first compound 0.253 µM
  relative viability: 0.523
[14]; first compound 0.8 µM
  relative viability: 0.587
[14]; first compound 2.53 µM
  relative viability: 0.625
[15]; first compound 0.08 µM
  relative viability: 0.639
[15]; first compound 0.253 µM
  relative viability: 0.619
[15]; first compound 0.8 µM
  relative viability: 0.707
[15]; first compound 2.53 µM
  relative viability: 0.49
[16]; first compound 0.08 µM
  relative viability: 0.374
[16]; first compound 0.253 µM
  relative viability: 0.364
[16]; first compound 0.8 µM
  relative viability: 0.392
[16]; first compound 2.53 µM
  relative viability: 0.398
[17]; first compound 0.08 µM
  relative viability: 0.349
[17]; first compound 0.253 µM
  relative viability: 0.361
[17]; first compound 0.8 µM
  relative viability: 0.409
[17]; first compound 2.53 µM
  relative viability: 0.314
[18]; first compound 0.08 µM
  relative viability: 0.744
[18]; first compound 0.253 µM
  relative viability: 0.584
[18]; first compound 0.8 µM
  relative viability: 0.628
[18]; first compound 2.53 µM
  relative viability: 0.591
[19]; first compound 0.08 µM
  relative viability: 0.232
[19]; first compound 0.253 µM
  relative viability: 0.195
[19]; first compound 0.8 µM
  relative viability: 0.241
[19]; first compound 2.53 µM
  relative viability: 0.228
[20]; first compound 0.08 µM
  relative viability: 1.08
[20]; first compound 0.253 µM
  relative viability: 0.995
[20]; first compound 0.8 µM
  relative viability: 1.03
[20]; first compound 2.53 µM
  relative viability: 1.07
[21]; first compound 0.08 µM
  relative viability: 0.204
[21]; first compound 0.253 µM
  relative viability: 0.226
[21]; first compound 0.8 µM
  relative viability: 0.236
[21]; first compound 2.53 µM
  relative viability: 0.174
[22]; first compound 0.08 µM
  relative viability: 0.521
[22]; first compound 0.253 µM
  relative viability: 0.367
[22]; first compound 0.8 µM
  relative viability: 0.521
[22]; first compound 2.53 µM
  relative viability: 0.548
